Source: PMC10981743, “Network pharmacology, computational biology integrated surface plasmon resonance technology reveals the mechanism of ellagic acid against rotavirus” (Scientific Reports, 2024)

Target: T1, TLR4; Recombinant human TLR4 protein (Active) (Homo sapiens, UniProt O00206)
T1 construct: commercial recombinant protein (Abcam, 'Active'); immobilised on CM5 chip by amine coupling
Assay: surface plasmon resonance (Biacore T200, TLR4 immobilised on CM5 chip)
Assay type: binding
Source text: surface plasmon resonance (Biacore T200, TLR4 immobilised on CM5 chip) on TLR4; Recombinant human TLR4 protein (Active)

T1 sequence (O00206 24-631 limits assumed): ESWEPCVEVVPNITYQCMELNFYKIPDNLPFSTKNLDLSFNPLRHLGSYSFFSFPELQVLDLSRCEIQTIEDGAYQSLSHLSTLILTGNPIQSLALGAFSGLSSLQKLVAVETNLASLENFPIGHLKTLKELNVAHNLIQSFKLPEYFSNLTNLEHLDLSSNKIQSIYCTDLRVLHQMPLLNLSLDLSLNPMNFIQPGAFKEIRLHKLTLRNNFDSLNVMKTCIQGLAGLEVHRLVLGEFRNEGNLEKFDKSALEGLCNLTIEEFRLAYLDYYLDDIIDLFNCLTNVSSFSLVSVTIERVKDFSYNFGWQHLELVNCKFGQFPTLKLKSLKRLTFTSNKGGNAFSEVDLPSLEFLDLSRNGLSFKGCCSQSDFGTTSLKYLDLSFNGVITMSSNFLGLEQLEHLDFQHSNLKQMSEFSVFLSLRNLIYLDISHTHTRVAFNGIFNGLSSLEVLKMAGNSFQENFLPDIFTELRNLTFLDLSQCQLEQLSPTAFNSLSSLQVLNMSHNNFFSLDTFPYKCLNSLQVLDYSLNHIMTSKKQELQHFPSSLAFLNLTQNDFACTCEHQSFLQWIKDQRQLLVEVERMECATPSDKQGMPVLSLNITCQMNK

**Q.** `O=c1oc2c(O)c(O)cc3c(=O)oc4c(O)c(O)cc1c4c23` [Ellagic acid] was tested. Which Kd did it give?
**A.** The Kd was 19.2 µM.
